According to paper PMC7356358 (Biomolecules, 2020):
Like-named read-outs stand apart in the source and are kept apart here.

Columns and labels:
KPf [1] = conditions: SD, n = 3
Source text: (§1) Standard deviations shown represent three
(§2) independent assays made using separate protein purification batches. Statistical significance of data was
(§3) Table S2. Comparative ATP binding affinities for the Hsp70 proteins
(§4) The standard deviations shown in parenthesis were […]

KPf [2] = conditions: read-out: Km (µM), + PfHsp40; SD, n = 3
Method: (§6) Hsp70 proteins at final concentration of 0.4 μM were each incubated for 5 min in buffer HKMD (10 mM HEPES-KOH pH 7.5, 100 mM KCl, 2 mM MgCl2 and 0.5 mM DTT). The reaction was initiated by the addition of ATP at various concentrations (0–5 mM) and samples were analyzed every 30 min for 4 h.
Standard deviations shown represent three independent assays made using separate protein purification batches.
validated by one way ANOVA test (p< 0.05 *) and (p<0.01**).

DnaK [3] = molecular target: T1, DnaK (Escherichia coli, UniProt P0A6Y8); test: Steady-state multi-parametric surface plasmon resonance at 25 °C with Hsp70 immobilised by amine coupling and ATP (0-20 uM) injected as analyte.; assay type: binding; set-up: recombinant full-length, N-terminal His6 tag (pQE30), expressed in E. coli XL1 Blue; conditions: SD, n = 3; read-out: KD /µM (± standard deviation)
Method: Association was allowed for 2 min and dissociation was monitored for 8 min.
as §1, §2, §3, §4
Target sequence in this assay (P0A6Y8 2-638): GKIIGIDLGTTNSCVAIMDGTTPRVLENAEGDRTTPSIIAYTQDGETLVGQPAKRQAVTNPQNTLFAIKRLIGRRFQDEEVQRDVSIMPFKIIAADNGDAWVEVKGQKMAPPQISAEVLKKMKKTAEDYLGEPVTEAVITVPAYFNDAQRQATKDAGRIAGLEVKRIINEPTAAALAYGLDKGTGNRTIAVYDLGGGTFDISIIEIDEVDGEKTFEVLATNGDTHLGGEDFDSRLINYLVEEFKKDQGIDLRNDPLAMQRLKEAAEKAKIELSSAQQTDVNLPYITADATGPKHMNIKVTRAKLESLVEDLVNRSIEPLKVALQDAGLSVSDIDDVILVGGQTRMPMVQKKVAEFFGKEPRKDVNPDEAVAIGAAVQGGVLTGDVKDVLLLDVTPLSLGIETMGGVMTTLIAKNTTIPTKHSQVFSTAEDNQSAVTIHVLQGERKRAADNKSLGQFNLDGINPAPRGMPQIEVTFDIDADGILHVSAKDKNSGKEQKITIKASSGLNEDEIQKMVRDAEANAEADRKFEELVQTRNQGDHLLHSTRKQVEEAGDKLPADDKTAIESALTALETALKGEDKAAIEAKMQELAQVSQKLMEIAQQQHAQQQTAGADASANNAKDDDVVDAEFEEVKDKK

KPf [4] = test: ATP binding affinity by MP-SPR, KPf; set-up: species or system E. coli / P. falciparum; conditions: read-out: ATP KD (± standard deviation), 25 °C, immobilized KPf, ATP analyte 0-20 μM, steady state equilibrium, three independent assays
Method: This assay was conducted at room temperature (25 °C) using a BioNavis Multi-parametric surface plasmon resonance (MP-SPR; BioNavis; Tampere, Finland) spectroscopy system. […] Steady state equilibrium constant data were processed and analyzed using TraceDrawer software version 1.8 (Ridgeview Instruments; Uppsala, Sweden).
Proteins Vmax (n/mol/min/mg) Km (µM)
as §1, §2
KD /µM (± standard deviation)
as §4

DnaK [5] = molecular target: T1, DnaK; test: Model peptide substrate binding by MP-SPR, DnaK; set-up: His6 (polyhistidine) (N); made in house; host or cells: E. coli XL1 Blue; conditions: for effect of asparagine enrichment of the peptide on DnaK's affinity: presence of ADP, N-enriched form versus this peptide; for affinity of DnaK for peptide: peptide 0-2000 nM over immobilized DnaK, presence of ADP (5 mM)
Source text: (§5) The Hsp70 ligands were immobilized as previously described.
Target sequence in this assay (P0A6Y8 whole entry): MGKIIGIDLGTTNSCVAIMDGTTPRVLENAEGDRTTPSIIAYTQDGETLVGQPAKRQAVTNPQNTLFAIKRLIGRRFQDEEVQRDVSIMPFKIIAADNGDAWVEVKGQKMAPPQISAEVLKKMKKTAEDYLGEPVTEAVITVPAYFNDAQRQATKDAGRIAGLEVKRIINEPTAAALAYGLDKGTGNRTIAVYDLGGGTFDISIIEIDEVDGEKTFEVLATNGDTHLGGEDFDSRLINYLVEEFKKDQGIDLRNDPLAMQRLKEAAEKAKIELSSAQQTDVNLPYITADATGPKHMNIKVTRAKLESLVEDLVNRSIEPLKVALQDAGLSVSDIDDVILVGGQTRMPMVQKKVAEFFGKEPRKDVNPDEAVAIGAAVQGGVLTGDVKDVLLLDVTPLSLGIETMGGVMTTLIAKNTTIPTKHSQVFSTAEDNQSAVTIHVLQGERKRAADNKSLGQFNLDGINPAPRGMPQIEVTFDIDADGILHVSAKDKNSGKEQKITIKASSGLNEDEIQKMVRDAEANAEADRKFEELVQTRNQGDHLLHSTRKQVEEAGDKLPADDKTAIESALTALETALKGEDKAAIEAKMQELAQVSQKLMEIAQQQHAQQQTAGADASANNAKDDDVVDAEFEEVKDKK

KPf [6] = conditions: MP-SPR; for effect of N enrichment of the peptide on affinity of KPf: presence of 5 mM ADP, N-enriched form versus this peptide
Target sequence in this assay (P11144 405-631 limits assumed): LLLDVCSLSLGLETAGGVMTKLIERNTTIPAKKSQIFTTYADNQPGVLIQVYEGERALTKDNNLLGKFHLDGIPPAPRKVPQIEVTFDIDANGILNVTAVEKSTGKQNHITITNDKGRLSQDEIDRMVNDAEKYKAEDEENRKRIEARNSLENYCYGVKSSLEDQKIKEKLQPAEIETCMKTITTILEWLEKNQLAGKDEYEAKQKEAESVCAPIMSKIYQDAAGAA
Method: The respective affinity of each Hsp70 for model peptide substrate was investigated by MP-SPR. The Hsp70 ligands were immobilized as previously described [36]. […] The analytes were injected at varying concentrations (0, 125 nM, 250 nM, 500 nM, 1000 nM and 2000 nM) over the immobilized ligands (Hsp70s). The analytes were injected at a flow rate of 100 µL/min and association and dissociation were allowed to occur for 10 min. The assay was conducted both in the absence and presence of 5 mM ADP/ATP. Analysis of association and dissociation data was conducted as previously described using TraceDrawer software version 1.8 (Ridgeview Instruments).

PfHsp70-1 [7] = test: Model peptide substrate binding by MP-SPR, PfHsp70-1; set-up: species or system Plasmodium falciparum; conditions: for affinity of PfHsp70-1 relative to the non-enriched peptide (GFRVVLMYRF, ALLLMYRR): presence of ADP
PfHsp70-1, sequence (P11144 1-630 limits assumed): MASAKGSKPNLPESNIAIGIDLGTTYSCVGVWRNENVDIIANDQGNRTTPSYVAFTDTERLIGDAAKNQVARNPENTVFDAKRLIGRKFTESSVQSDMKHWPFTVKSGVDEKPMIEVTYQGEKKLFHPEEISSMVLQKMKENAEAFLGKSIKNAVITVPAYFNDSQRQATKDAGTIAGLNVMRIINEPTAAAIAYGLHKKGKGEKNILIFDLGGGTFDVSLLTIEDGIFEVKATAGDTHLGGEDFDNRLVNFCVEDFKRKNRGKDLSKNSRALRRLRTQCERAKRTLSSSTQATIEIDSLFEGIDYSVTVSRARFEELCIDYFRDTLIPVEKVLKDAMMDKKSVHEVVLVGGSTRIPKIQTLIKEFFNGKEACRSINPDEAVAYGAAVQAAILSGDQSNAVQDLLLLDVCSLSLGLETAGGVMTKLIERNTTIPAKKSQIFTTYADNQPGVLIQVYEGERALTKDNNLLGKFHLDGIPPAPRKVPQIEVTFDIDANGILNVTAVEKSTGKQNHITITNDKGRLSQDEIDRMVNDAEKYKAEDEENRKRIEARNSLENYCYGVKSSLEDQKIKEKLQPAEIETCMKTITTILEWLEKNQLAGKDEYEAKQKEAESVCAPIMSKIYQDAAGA
Source text: as §5

DnaK [8] = molecular target: T1, DnaK; conditions: MP-SPR
Target sequence in this assay (P0A6Y8 whole entry): as the sequence (P0A6Y8 whole entry) above
Method: (§7) As ligands, the recombinant Hsp70 proteins were immobilized on the CMD3D 500L chip. The analyte (respective Hsp70 protein) was prepared at various concentrations of 0, 125, 250, 500, 1000 and 2000 nM, respectively and injected at 50 μL/sec onto each channel with immobilized ligands. A reference channel without immobilized protein served as the control for non-specific binding and changes in refractive index. The analysis was conducted either in the absence or presence of 5 mM ATP/ADP. Association was allowed for 2 min, while dissociation was monitored for 8 min. Data analysis was conducted after double referencing by subtraction of both the baseline RU (buffer with ATP/ADP plus BSA as control protein) and RU from the reference channel. Kinetics steady-state equilibrium constant data were processed after concatenating the responses of all five analyte concentrations by global fitting using TraceDrawer software version 1.8 (Ridgeview Instruments).

[9] = Heat stability of secondary structure by far-UV CD; assay type: physicochemical; conditions: far-UV CD at 222 nm
Method: Spectra was averaged for 15 scans after baseline correction (buffer without recombinant protein). The spectra were deconvoluted to α-helix, β-sheet, β-turn and unordered regions, using the Dichroweb server, (http://dichroweb.cryst.bbk.ac.uk; [37]). The effect of heat stress on the secondary structure of the Hsp70s was investigated by monitoring the spectral changes of each protein at various temperatures (19–95 °C). The folded states of each Hsp70 protein at any given temperature were determined using spectral readings obtained at 222 nm as previously described. In a separate experiment, the analysis of PfAdoMetDC protein co-expressed with the various chaperone sets was conducted by monitoring the CD spectrum at 190–240 nm at 22 °C. The assay was repeated in the presence of PfAdoMetDC substrate, S-adenosylmethionine hydrochloride (SAM), as previously described with minor modifications. Briefly, PfAdoMetDC protein was preincubated in PBS supplemented with 100 μM SAM for 30 min prior to analysis at 25 °C. The resultant spectra were monitored and averaged following baseline correction (100 μM SAM using buffer void of the protein).

[10] = ATPase activity (released inorganic phosphate); assay type: biochemical; conditions: basal ATPase, 0.4 μM Hsp70, ATP 0-5 mM, buffer HKMD pH 7.5, SD of three independent assays
Method: as §6

PfAdoMetDC = test: Co-expression of PfAdoMetDC with supplementary chaperones in E. coli, fold by CD/fluorescence; assay type: cell-based, Plasmodium falciparum; conditions: co-expression with DnaJ in E. coli BL21 Star (DE3); purified PfAdoMetDC analysed by CD, ANS and intrinsic fluorescence
Method: Briefly, the transformed E. coli BL21 Star (DE3) cells were cultured in LB broth supplemented with 100 μg/mL ampicillin (Sigma Aldrich) to select for pASKIBA3 and 50 μg/mL spectinomycin (Sigma Aldrich), to select for pBB535 and pBB542, respectively. As control, PfAdoMetDC expressed alone (without supplementary chaperones), was expressed in E. coli BL21 StarTM (DE3) cells as previously described [33]. The expression of chaperones was initiated by addition of 1 mM IPTG and at OD600 = 0.2 while the expression of PfAdoMetDC was initiated by addition of 2 ng/mL anhydroxytetracycline (AHT) (IBA GmbH, Göttingen, Germany) at OD600 = 0.7. Cells were incubated for 24 h (37 °C, 250 rpm) from the time of induction with IPTG. The cells were harvested by centrifugation (5000 g, 20 min, 4 °C) and the pellet was resuspended in lysis buffer (100 mM Tris pH 7.5; 300 mM NaCl; 10 mM Imidazole, containing 1 mM aminoethyl benzenesulfonyl fluoride hydrochloride (AEBSF) and 1 mg/mL of lysozyme). […] Purified PfAdoMetDC protein was quantified using the Bradford assay. […] Following Strep-Tactin Sepharose affinity column purification, PfAdoMetDC was analyzed using an Äkta explorer system (Amersham Pharmacia Biotech; Buckinghamshire, UK) fast protein liquid chromatography (FPLC), to determine migration profiles of the protein preparations that were co-expressed with the various chaperones sets. The migration pattern of PfAdoMetDC as determined by Size exclusion chromatography (SEC) was used to infer the compact/relaxed state of its fold. Retention times of the respective protein preparation were determined by SEC at 22 °C in running buffer (50 mM Tris-HCl, pH 7.5, 1 mM DTT, 500 mM NaCl and 0.02% w/v NaN3) using Bio-Select SEC 250-5 column (BioRad) with a fractionation range of 1000–250,000 Da. […] The elution profiles of the protein preparations were determined as peaks obtained at 280 nm using a Spectra Series UV100 spectrophotometer (Thermo Fischer Scientific). […]

PfHsp70-1 [11] = test: Self-association of PfHsp70-1 by MP-SPR; assay type: binding, Plasmodium falciparum
Method: as §7

[12] = 0.2 μM protein in PBS pH 7.5, 19–95 °C

Compound: Nc1ncnc2c1ncn2[C@@H]1O[C@H](COP(=O)(O)OP(=O)(O)OP(=O)(O)O)[C@@H](O)[C@H]1O [ATP, adenosine 5'-triphosphate]
- Km (KPf [1]): 29.6 µM
- Km (KPf [2]): 25.7 µM
- Kd (DnaK [3]): 83.8 µM

Compound: Nc1ncnc2c1ncn2[C@@H]1O[C@H](COP(=O)(O)OP(=O)(O)OP(=O)(O)O)[C@@H](O)[C@H]1O [ATP]
- Kd (KPf [4]): 0.38 µM

Compound: ALLLMYRR
- effect of asparagine enrichment of the peptide on DnaK's affinity (DnaK [5]): did not enhance
- effect of N enrichment of the peptide on affinity of KPf (KPf [6]): not enhanced

Compound: ANNNMYRR
- affinity of PfHsp70-1 relative to the non-enriched peptide (GFRVVLMYRF, ALLLMYRR) (PfHsp70-1 [7]): higher affinity

Compound: DnaK: recombinant (His)6-tagged Escherichia coli Hsp70 (DnaK)
- Ka (DnaK [8]; analyte DnaK 0-2000 nM over immobilized DnaK, + 5 mM ATP, global fit): 1.38 (±0.08) × 10^2 Ms^−1
- Ka (DnaK [8]; analyte DnaK over immobilized DnaK, + 5 mM ADP): 1.22 (±0.13) × 10^2 Ms^−1
- Ka (DnaK [8]; analyte DnaK over immobilized DnaK, no nucleotide): 1.27 (±0.07) × 10^3 Ms^−1
- temperature above which the protein rapidly unfolded [9, 12]: above 45 °C
- temperature of complete unfolding [9, 12]: approximately 68 °C
- Vmax [10]: 14.33 (± 1.4) n/mol/min/mg
- effect of co-produced chaperone on PfAdoMetDC folding (PfAdoMetDC): did not support PfAdoMetDC folding

Compound: GFRNNNMYRF
- affinity of PfHsp70-1 relative to the non-enriched peptide (GFRVVLMYRF, ALLLMYRR) (PfHsp70-1 [7]): higher affinity

Compound: GFRVVLMYRF
- effect of asparagine enrichment of the peptide on DnaK's affinity (DnaK [5]): did not enhance
- effect of N enrichment of the peptide on affinity of KPf (KPf [6]): not enhanced

Compound: GroEL: E. coli chaperonin co-expressed as supplementary chaperone
- effect of co-produced chaperone on PfAdoMetDC folding (PfAdoMetDC): restoration of the ß-conformation

Compound: NRLLTG [canonical Hsp70 model peptide substrate]
- affinity of DnaK for peptide (DnaK [5]): nanomolar range

Compound: NRNNTG
- affinity of PfHsp70-1 for peptide (PfHsp70-1 [7]; peptide over immobilized PfHsp70-1, presence of ADP, higher than for NRLLTG): nanomolar range
- affinity of DnaK for peptide (DnaK [5]): micromolar range
- affinity of KPf for peptide (KPf [6]; peptide over immobilized KPf, presence of ADP, higher than for NRLLTG): nanomolar range

Compound: PfHsp70-1: recombinant Plasmodium falciparum Hsp70-1, cytosol-localized molecular chaperone (PF3D7_0818900)
- association rate constant (kon) (PfHsp70-1 [11]; analyte PfHsp70-1 0-2000 nM over immobilized PfHsp70-1, + 5 mM ATP): 2.14 (±0.04) × 10^4 Ms^−1
- association rate constant (kon) (PfHsp70-1 [11]; analyte PfHsp70-1 over immobilized PfHsp70-1, + 5 mM ADP): 1.00 (±0.17) × 10^2 Ms^−1
- association rate constant (kon) (PfHsp70-1 [11]; analyte PfHsp70-1 over immobilized PfHsp70-1, no nucleotide): 8.51 (±1.20) × 10^3 Ms^−1
- temperature of complete unfolding [9, 12]: around 90 °C
- temperature up to which at least 50% fold is maintained ([9]; 0.2 μM protein in PBS pH 7.5, 19–95 °C, relative to 19 °C): 60 °C
- temperature range of second unfolding phase ([9]; two-step unfolding pattern): 75–90 °C
- Vmax [10]: 22.45 (± 1.8) n/mol/min/mg
- effect of co-produced chaperone on PfAdoMetDC folding (PfAdoMetDC): fully folded status
